The source of these data is patent US11344510B2, “Arylcyclohexylamine derivatives and their use in the treatment of psychiatric disorders” (Gilgamesh Pharmaceuticals, Inc., priority 2019, dated 2022).

Data set [1] can be described thus: HLM stability (Low Activity, Alternative Method). In kind it is in vitro ADME. Conditions: both sexes, human, liver microsomes, pH 7.4, Condition 1 column, values marked *: Low Activity, 0.50 mg protein/mL. The procedure:
(§1) HLM Stability (Low Activity, Alternative Method). Pooled HLM from adult male and female donors (Corning 452117) were used. Microsomal incubations were carried out in multi-well plates. Liver microsomal incubation medium consisted of PBS (100 mM, pH 7.4), MgCl2 (1 mM), and NADPH (1 mM), with 0.50 mg of liver microsomal protein per mL. Control incubations were performed by replacing the NADPH-cofactor system with PBS. Test compounds (1 μM, final solvent concentration 1.0%) were incubated with microsomes at 37° C. with constant shaking. Six time points over 60 minutes were analyzed, with 60 μL aliquots of the reaction mixture being drawn at each time point. The reaction aliquots were stopped by adding 180 μL of cold (4° C.) acetonitrile containing 200 ng/mL tolbutamide and 200 ng/mL labetalol as internal standards (IS), followed by shaking for 10 minutes, and then protein sedimentation by centrifugation at 4000 rpm for 20 minutes at 4° C. Supernatant samples (80 μL) were diluted with water (240 μL) and analyzed for parent compound remaining using a fit-for-purpose liquid chromatography-tandem mass spectrometry (LC-MS/MS) method.
(§2) Data Analysis. The elimination constant (kel), half-life (t1/2) and intrinsic clearance (Clint) were determined in a plot of […] versus time, using linear regression analysis.
A general note: Microsomes from liver hold many membrane-bound enzymes, among them those of drug oxidation.

Data set [2] in a line: MLM stability (Low Activity). In kind it is in vitro ADME, CD-1 mice. The note with it: male, CD-1, mouse, liver microsomes, pH 7.4, Condition 1 (Low Activity), 0.50 mg protein/mL. As to the method:
as §1, with “MLM” for “HLM”, “Activity).” for “Activity, Alternative Method).”, “from” for “from adult”, “CD-1 mice (XenoTech M1000)” for “and female donors (Corning 452117)”
as §2

Data set [3] is described as follows: RLM stability (Low Activity). In kind it is in vitro ADME, Sprague Dawley rats. The note with it: male, Sprague Dawley, rat, liver microsomes, pH 7.4, Condition 1 (Low Activity), 0.50 mg protein/mL. The procedure:
as §1, with “RLM” for “HLM”, “Activity).” for “Activity, Alternative Method).”, “from” for “from adult”, “Sprague Dawley rats (XenoTech R1000)” for “and female donors (Corning 452117)”
as §2

The target of data set [4] is MK-801 binding site of the N-methyl-D-aspartate receptor (NMDAR). Put plainly: NMDAR radioligand binding with [3H]MK-801, Method B. Details: species or system Sprague Dawley rat. Conditions: MK-801 site, Method B, male Sprague Dawley rat cortex, 5.0 nM [3H]MK-801; read-out: NMDAR Ki ± SEM. The procedure:
Radioligand Binding—Method B. Affinity of the test compounds for NMDAR was determined in radioligand binding experiments with [^3H]MK-801 by WuXi AppTec (Hong Kong) Limited, under the conditions described in Table 13.

Data set [5] concerns the target T1, serotonin transporter (SERT) (Homo sapiens, UniProt P31645).
T1 construct: expressed in transfected cells; host or cells: HEK293
Put plainly: Fluorescent substrate uptake inhibition, SERT. In kind it is cell-based. Conditions: 10 μM, HEK293 cells expressing SERT. As to the method: (§3) Uptake Inhibition. The ability of test compounds to block monoamine uptake by SERT, NET, DAT, and VMAT2 was determined using the Neurotransmitter Transporter Uptake Assay Kit manufactured by Molecular Devices (Cat #R8173). Briefly, stably transfected cells expressing the MAT of interest (HEK293 cells for SERT and NET; CHO cells for DAT) were grown and plated into 384-well plates at a concentration of 20,000 cells per well. Plates were then incubated for 16-20 h at 37° C. and 5% CO2. The medium was then aspirated and replaced with 25 μL of assay buffer (20 mM HEPES in HBSS, containing 0.1% BSA) containing the test compounds at the appropriate concentrations. Plates were then centrifuged at 300 rpm for 15 s and then incubated at 37° C. for 30 minutes. At this time, 25 μL of the proprietary fluorescent dye solution was added, the plates were incubated at 37° C. for 60 minutes, and then fluorescence was quantified on a plate reader (excitation wavelength=440 nm, emission wavelength=520 nm). The proprietary dye solution contains a mixture of 1) a fluorescent dye that mimics the endogenous substrates of MATs and is thereby actively transported to the intracellular compartment in the absence of an inhibitor and 2) a masking dye that inhibits the fluorescence of dye 1 in the extracellular compartment. Therefore, the overall fluorescence of the system increases as the fluorescent dye is transported into the cells.

The target of data set [6] is T2, norepinephrine transporter (NET) (Homo sapiens, UniProt P23975).
T2 construct: expressed in transfected cells; host or cells: HEK293
T2 sequence (P23975 whole entry, species assumed): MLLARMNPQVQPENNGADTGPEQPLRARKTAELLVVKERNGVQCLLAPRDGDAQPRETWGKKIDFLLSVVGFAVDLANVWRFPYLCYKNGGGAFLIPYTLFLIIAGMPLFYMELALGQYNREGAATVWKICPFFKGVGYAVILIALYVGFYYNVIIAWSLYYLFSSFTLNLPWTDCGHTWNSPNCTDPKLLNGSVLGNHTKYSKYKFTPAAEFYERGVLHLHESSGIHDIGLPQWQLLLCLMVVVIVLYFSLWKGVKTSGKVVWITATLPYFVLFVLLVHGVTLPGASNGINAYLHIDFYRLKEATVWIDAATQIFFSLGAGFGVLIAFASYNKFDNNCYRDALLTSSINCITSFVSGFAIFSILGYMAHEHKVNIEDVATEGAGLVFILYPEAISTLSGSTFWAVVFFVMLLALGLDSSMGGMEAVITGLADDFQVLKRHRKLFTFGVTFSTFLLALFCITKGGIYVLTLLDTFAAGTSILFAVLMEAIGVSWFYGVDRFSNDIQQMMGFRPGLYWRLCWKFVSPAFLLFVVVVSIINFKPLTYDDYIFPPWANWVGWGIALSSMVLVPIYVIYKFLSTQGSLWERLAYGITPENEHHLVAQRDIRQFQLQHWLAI
The experiment in a line: Fluorescent substrate uptake inhibition, NET. The class given is cell-based. The note with it: 10 μM, HEK293 cells expressing NET. The procedure:
as §3

Data set [7] concerns the target T3, dopamine transporter (DAT) (Homo sapiens, UniProt Q01959).
T3 construct: expressed in transfected cells; host or cells: CHO (uptake)
The experiment in a line: Fluorescent substrate uptake inhibition, DAT. The class given is cell-based. Conditions: 10 μM, CHO cells expressing DAT. The procedure:
as §3

Data set [8] has as its target T4, vesicular monoamine transporter 2 (VMAT2) (Homo sapiens, UniProt Q05940).
T4 construct: expressed in transfected cells
Put plainly: Fluorescent substrate uptake inhibition, VMAT2. The class given is cell-based. Conditions: 10 μM, transfected cells. The procedure: as §3

Bounds are passed on as bounds.

T1 sequence (P31645 whole entry, species assumed): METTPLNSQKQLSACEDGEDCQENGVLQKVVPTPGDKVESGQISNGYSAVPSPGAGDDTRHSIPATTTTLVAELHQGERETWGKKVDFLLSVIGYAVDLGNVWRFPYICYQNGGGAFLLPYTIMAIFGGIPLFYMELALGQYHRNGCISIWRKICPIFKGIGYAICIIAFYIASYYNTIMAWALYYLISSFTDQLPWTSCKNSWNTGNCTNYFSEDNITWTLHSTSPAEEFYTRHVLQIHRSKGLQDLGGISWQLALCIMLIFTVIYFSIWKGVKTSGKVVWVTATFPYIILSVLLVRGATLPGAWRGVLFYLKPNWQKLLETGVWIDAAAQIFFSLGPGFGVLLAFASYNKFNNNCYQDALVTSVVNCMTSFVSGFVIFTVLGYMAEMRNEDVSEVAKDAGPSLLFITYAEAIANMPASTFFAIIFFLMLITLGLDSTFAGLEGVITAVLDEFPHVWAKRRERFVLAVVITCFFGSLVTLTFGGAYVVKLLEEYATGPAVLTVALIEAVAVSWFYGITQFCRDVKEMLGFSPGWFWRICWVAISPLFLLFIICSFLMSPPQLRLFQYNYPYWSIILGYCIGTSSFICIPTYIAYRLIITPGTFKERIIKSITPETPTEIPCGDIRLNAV
T4 sequence (Q05940 whole entry, species assumed): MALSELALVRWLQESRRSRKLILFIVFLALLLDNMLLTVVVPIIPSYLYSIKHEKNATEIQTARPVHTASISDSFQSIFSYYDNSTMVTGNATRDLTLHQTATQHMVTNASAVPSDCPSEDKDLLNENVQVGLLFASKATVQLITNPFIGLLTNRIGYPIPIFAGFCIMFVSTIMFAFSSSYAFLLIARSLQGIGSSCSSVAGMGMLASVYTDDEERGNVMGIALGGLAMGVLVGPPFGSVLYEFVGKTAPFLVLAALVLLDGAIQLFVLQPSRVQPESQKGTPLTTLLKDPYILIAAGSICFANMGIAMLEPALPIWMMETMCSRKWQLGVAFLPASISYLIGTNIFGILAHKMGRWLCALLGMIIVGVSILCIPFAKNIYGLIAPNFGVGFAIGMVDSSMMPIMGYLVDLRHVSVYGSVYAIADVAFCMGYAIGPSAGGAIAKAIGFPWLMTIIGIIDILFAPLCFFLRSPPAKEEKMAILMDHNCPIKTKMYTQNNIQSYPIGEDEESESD
T3 sequence (Q01959 whole entry, species assumed): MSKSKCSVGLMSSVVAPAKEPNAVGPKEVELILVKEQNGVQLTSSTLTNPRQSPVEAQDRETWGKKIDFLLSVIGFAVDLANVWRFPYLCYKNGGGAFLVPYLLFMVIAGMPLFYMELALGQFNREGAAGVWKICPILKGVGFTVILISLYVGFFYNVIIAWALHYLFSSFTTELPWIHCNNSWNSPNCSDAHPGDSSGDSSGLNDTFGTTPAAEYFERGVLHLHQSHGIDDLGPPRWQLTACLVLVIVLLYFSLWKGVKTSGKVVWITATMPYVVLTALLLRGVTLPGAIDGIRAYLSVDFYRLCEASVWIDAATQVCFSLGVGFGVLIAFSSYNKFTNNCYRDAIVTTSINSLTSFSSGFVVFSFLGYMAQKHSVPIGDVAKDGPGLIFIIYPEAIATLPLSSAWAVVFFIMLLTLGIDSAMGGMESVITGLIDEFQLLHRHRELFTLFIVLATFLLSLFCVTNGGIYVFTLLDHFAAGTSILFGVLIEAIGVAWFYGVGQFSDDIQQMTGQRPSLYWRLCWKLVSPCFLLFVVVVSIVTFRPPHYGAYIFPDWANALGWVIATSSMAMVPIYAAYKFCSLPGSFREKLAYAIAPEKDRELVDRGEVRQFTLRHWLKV

What is called half-life is the time in which the quantity being followed falls by half. Read a high half-life as slow loss. Usually microsomal CLint stands for a measure of how fast metabolising enzymes remove a compound, apart from limits set by blood flow. The term Ki denotes the dissociation constant of the complex between target and ligand, obtained from inhibition or displacement. Usually inhibition stands for the drop in the measured response relative to a control, in per cent. As to `COCCN[C@@]1(c2ccccc2)CCCCC1=O` [Compound 29R, (R)-2-((2-methoxyethyl)amino)-2-phenylcyclohexan-1-one], the half-life at 1 μM is greater than 145 min in data set [1], 30.1 min in data set [2] and 32.2 min in data set [3]. The microsomal CLint at 1 μM is less than 9.6 µL/min/mg in data set [1], 46.1 µL/min/mg in data set [2] and 43 µL/min/mg in data set [3]. In addition, the inhibitory constant (Ki) in data set [4] is greater than 23 µM. In addition, the inhibition at 10 µM was 19.6% in data set [5], -16% in data set [6], -7.1% in data set [7] and -31.9% in data set [8].
As for `COCCN[C@]1(c2ccccc2)CCCCC1=O` [Compound 29S, (5)-2-((2-methoxyethyl)amino)-2-phenylcyclohexan-1-one], the half-life at 1 μM in data set [1] is greater than 145 min; in data set [2], 35.7 min; in data set [3], 31.8 min. Besides, the values for the intrinsic clearance (microsomal CLint) at 1 μM in data set [1], in data set [2] and in data set [3] were less than 9.6 µL/min/mg, 35.8 µL/min/mg and 43.6 µL/min/mg, respectively. Further, the Ki in data set [4] was 8.2 µM. Also, the inhibition at 10 µM in data set [5] is -12.9%; in data set [6] it was 4%; in data set [7], 13.7%; in data set [8], -10.5%.
Take `O=C1CCCC[C@]1(c1ccccc1)N1CCOCC1` [Compound 31R, (R)-2-morpholino-2-phenylcyclohexan-1-one]: the half-life at 1 μM in data set [1] is 45.7 min; in data set [2] it was 11.2 min; in data set [3], 6.8 min. In addition, the microsomal CLint at 1 μM in data set [1] came to 30.3 µL/min/mg; in data set [2] it was 124 µL/min/mg; in data set [3], 204 µL/min/mg. The Ki in data set [4] is greater than 23 µM. The inhibition at 10 µM in data set [5] is -1.2%; in data set [6], 1.3%; in data set [7], 9.8%; in data set [8] it was -3.4%.
In the case of `O=C1CCCC[C@@]1(c1ccccc1)N1CCOCC1` [Compound 31S, (S)-2-morpholino-2-phenylcyclohexan-1-one], the half-life at 1 μM came to 61 min in data set [1], 10.8 min in data set [2] and 9.6 min in data set [3]. For the same compound, the intrinsic metabolic clearance (microsomal CLint) at 1 μM amounted to 22.7 µL/min/mg in data set [1], 128 µL/min/mg in data set [2] and 144 µL/min/mg in data set [3]. In addition, the Ki in data set [4] is greater than 23 µM. Moreover, the inhibition at 10 µM is -7.9% in data set [5], 1.6% in data set [6], 16.9% in data set [7] and -5.5% in data set [8].
Turning to `CC1CCN1C1(c2ccccc2)CCCCC1=O` (stereo not shown) [Compound 128mix, 2-(2-methylazetidin-1-yl)-2-phenylcyclohexan-1-one], the half-life at 1 μM in data set [1] stood at 87 min; in data set [2], 20.3 min; in data set [3], 27.4 min. For the same compound, the intrinsic clearance (microsomal CLint) at 1 μM in data set [1] came to 15.9 µL/min/mg; in data set [2], 68.3 µL/min/mg; in data set [3], 50.6 µL/min/mg. Besides, the Ki in data set [4] is 1.9 µM. In addition, the inhibition at 10 µM was 81.9% in data set [5], -2.9% in data set [6], 19.2% in data set [7] and 23.4% in data set [8].
